Results reported in ChEMBL document CHEMBL4043139, “Fluoro and pentafluorothio analogs of the antitumoral curcuminoid EF24 with superior antiangiogenic and vascular-disruptive effects” (Bioorg Med Chem, 2017).
The source made the active and inactive calls. The rule behind the calls is not given here.

Assays:
[1] = test system: Gallus gallus; assay: Vascular disruptive activity in 6 days post fertilized chicken egg chorioallantoic/vitelline membrane assessed as degradation of blood vessels at 10 nmol administered topically measured after 6 hrs by stereo-microscopic analysis; assay type: functional
[2] = test system: 518A2; assay: Cytotoxicity against human 518A2 cells after 72 hrs by MTT assay; assay type: functional, cell-based
[3] = test system: HT-29; assay: Cytotoxicity against human HT-29 cells after 72 hrs by MTT assay; assay type: functional, cell-based
[4] = test system: HCT-116; assay: Cytotoxicity against human HCT116 cells after 72 hrs by MTT assay; assay type: functional, cell-based
[5] = test system: DLD-1; assay: Cytotoxicity against human DLD1 cells after 72 hrs by MTT assay; assay type: functional, cell-based
[6] = test system: PANC-1; assay: Cytotoxicity against human PANC1 cells after 72 hrs by MTT assay; assay type: functional, cell-based
[7] = (§1) Cytotoxicity against human KB-V1/Vbl cells after 72 hrs by MTT assay; assay type: functional, cell-based
[8] = test system: KB-V1/Vbl; assay: as §1; assay type: functional, cell-based
[9] = (§2) Cytotoxicity against human MCF7/Topo cells after 72 hrs by MTT assay; assay type: functional, cell-based
[10] = test system: MCF7/Topo; assay: as §2; assay type: functional, cell-based
[11] = (§3) Cytotoxicity against human U87 cells after 72 hrs by MTT assay; assay type: functional, cell-based, U-87MG ATCC; conditions: U-87 MG
[12] = test system: U-87MG ATCC; assay: as §3; assay type: functional, cell-based
[13] = Cytotoxicity against HDFa after 72 hrs by MTT assay; assay type: cell-based; conditions: Homo sapiens
[14] = test system: HT-29; assay: Cell cycle arrest in human HT-29 cells assessed as accumulation at sub-G1 phase at 1 uM after 24 hrs by propidium iodide staining based flow cytometric analysis (reference value: 0.9 +/- 0.1%); assay type: functional
[15] = test system: HT-29; assay: Cell cycle arrest in human HT-29 cells assessed as accumulation at sub-G1 phase at 2.5 uM after 24 hrs by propidium iodide staining based flow cytometric analysis (reference value: 0.9 +/- 0.1%); assay type: functional
[16] = test system: HT-29; assay: Cell cycle arrest in human HT-29 cells assessed as accumulation at sub-G1 phase at 5 uM after 24 hrs by propidium iodide staining based flow cytometric analysis (reference value: 0.9 +/- 0.1%); assay type: functional
[17] = test system: HT-29; assay: Cell cycle arrest in human HT-29 cells assessed as accumulation at G1 phase at 1 uM after 24 hrs by propidium iodide staining based flow cytometric analysis (reference value: 68 +/- 0.9%); assay type: functional
[18] = test system: HT-29; assay: Cell cycle arrest in human HT-29 cells assessed as accumulation at G1 phase at 2.5 uM after 24 hrs by propidium iodide staining based flow cytometric analysis (reference value: 68 +/- 0.9%); assay type: functional
[19] = test system: HT-29; assay: Cell cycle arrest in human HT-29 cells assessed as accumulation at G1 phase at 5 uM after 24 hrs by propidium iodide staining based flow cytometric analysis (reference value: 68 +/- 0.9%); assay type: functional
[20] = test system: HT-29; assay: Cell cycle arrest in human HT-29 cells assessed as accumulation at S phase at 1 uM after 24 hrs by propidium iodide staining based flow cytometric analysis (reference value: 15.6 +/- 0.3%); assay type: functional
[21] = test system: HT-29; assay: Cell cycle arrest in human HT-29 cells assessed as accumulation at S phase at 2.5 uM after 24 hrs by propidium iodide staining based flow cytometric analysis (reference value: 15.6 +/- 0.3%); assay type: functional
[22] = test system: HT-29; assay: Cell cycle arrest in human HT-29 cells assessed as accumulation at S phase at 5 uM after 24 hrs by propidium iodide staining based flow cytometric analysis (reference value: 15.6 +/- 0.3%); assay type: functional
[23] = test system: HT-29; assay: Cell cycle arrest in human HT-29 cells assessed as accumulation at G2/M phase at 1 uM after 24 hrs by propidium iodide staining based flow cytometric analysis (reference value: 15.5 +/- 0.5%); assay type: functional
[24] = test system: HT-29; assay: Cell cycle arrest in human HT-29 cells assessed as accumulation at G2/M phase at 2.5 uM after 24 hrs by propidium iodide staining based flow cytometric analysis (reference value: 15.5 +/- 0.5%); assay type: functional
[25] = test system: HT-29; assay: Cell cycle arrest in human HT-29 cells assessed as accumulation at G2/M phase at 5 uM after 24 hrs by propidium iodide staining based flow cytometric analysis (reference value: 15.5 +/- 0.5%); assay type: functional
[26] = test system: HT-29; assay: Upregulation of cyclin B1 expression in human HT-29 cells at 0.5 to 0.75 uM after 24 hrs by Western blot analysis; assay type: functional, cell-based
[27] = species: Homo sapiens; assay: Inhibition of NF-kappaB in human 518A2 cells assessed as reduction in p65 subunit expression at 0.5 to 1 uM after 24 hrs by Western blot analysis; assay type: cell-based
[28] = test system: 518A2; assay: Anti-migratory activity in human 518A2 cells assessed as wound closure at 250 nM after 24 hrs by light microscopic analysis; assay type: functional, cell-based
[29] = test system: 518A2; assay: Anti-migratory activity in human 518A2 cells assessed as wound closure at 250 nM after 48 hrs by light microscopic analysis (reference value: 100%); assay type: functional
[30] = species: Danio rerio; assay: Antiangiogenic activity in 72 hrs post fertilized zebra fish embryo harboring fli1a:EGFP assessed as area of subintestinal veins at 10 uM after 48 hrs by fluorescence microscopic analysis (reference value: 100%); assay type: functional
[31] = Toxicity in 6 days post fertilized chicken egg chorioallantoic/vitelline membrane assessed as irritation of chorioallantoic/vitelline membrane at 10 nmol administered topically measured after 24 hrs; parameters: species or system Gallus gallus; conditions: in vivo, topical_or_ocular
[32] = test system: Gallus gallus; assay: Vascular disruptive activity in 6 days post fertilized chicken egg assessed as area covered by blood vessels at 10 nmol administered topically measured after 6 hrs by light microscopic analysis relative to control; assay type: functional
[33] = test system: U-87MG ATCC; assay: Anti-vasculogenic activity in human U87 cells assessed as reduction in formation of cord-like structures at 1 uM after 24 hrs by matrigel based light microscopic analysis; assay type: functional, cell-based
[34] = test system: U-87MG ATCC; assay: Anti-vasculogenic activity in human U87 cells assessed as reduction in formation of blood-vessel like tubular structures at 1 uM after 24 hrs by matrigel based light microscopic analysis; assay type: functional, cell-based
[35] = test system: U-87MG ATCC; assay: Anti-vasculogenic activity in human U87 cells assessed as reduction in formation of small stray colonies at 1 uM after 24 hrs by matrigel based light microscopic analysis; assay type: functional, cell-based
[36] = Cytotoxicity against human U87 cells assessed as cell viability at 10 nmol after 24 hrs by MTT assay relative to control; assay type: cell-based, U-87MG ATCC; conditions: read-out: Activity

## CCN1C/C(=C\c2ccc(S(F)(F)(F)(F)F)cc2)C(=O)/C(=C/c2ccc(S(F)(F)(F)(F)F)cc2)C1
[1]
  Activity: Active
[2]
  Activity: Dose-dependent effect
[2]; 518A2, 72 h
  IC50: 990 nM
[3]
  Activity: Dose-dependent effect
[3]; HT-29, 72 h
  IC50: 290 nM
[4]
  Activity: Dose-dependent effect
[4]; HCT-116, 72 h
  IC50: 240 nM
[5]
  Activity: Dose-dependent effect
[5]; DLD-1, 72 h
  IC50: 330 nM
[6]
  Activity: Dose-dependent effect
[6]; PANC-1, 72 h
  IC50: 1100 nM
[7]
  IC50: 640 nM
[8]
  Activity: Dose-dependent effect
[9]
  IC50: 400 nM
[10]
  Activity: Dose-dependent effect
[11]
  IC50: 930 nM
[12]
  Activity: Dose-dependent effect
[13]
  IC50: 3200 nM
[14]
  Activity: 13.2%
[15]
  Activity: 12.8%
[16]
  Activity: 16.6%
[17]
  Activity: 46.7%
[18]
  Activity: 43.1%
[19]
  Activity: 35.9%
[20]
  Activity: 8.1%
[21]
  Activity: 12%
[22]
  Activity: 16.5%
[23]
  Activity: 32.1%
[24]
  Activity: 32.1%
[25]
  Activity: 31%
[26]
  Activity: Active
[27]
  inhibition: Active
[28]
  Activity: Active
[29]
  Activity: 77%
[30]
  Activity: 51%
[31]
  Activity: Toxic
[32]
  Activity: 67%
[33]
  Activity: inactive
[34]
  Activity: inactive
[35]
  Activity: inactive
[36]
  viability at 24 h, 10 nmol: > 85%
